Test system: H1 human embryonic stem cells
Test: Single-cell monolayer assay with EGF/FGF4, serum free, no activin A (Example 10, Table 10)
Type: cell-based
Experimental: Briefly, clusters of H1 human embryonic stem cells were grown on reduced growth factor […]™ (Invitrogen; Cat #356231)-coated tissue culture plastic. Cultures were treated with Accutase (Sigma; Cat #A6964), using equivalent volumes of […] surface area for 5 minutes at 37° C., then gently resuspended, pelleted by centrifugation, and resuspended in MEF conditioned medium for counting. For assay seeding, cells were plated at 50,000 cells/cm^2 on reduced growth factor […]™-coated 96-well black plates (Packard ViewPlates; Cat #6005182) using volumes of 100 μl/well. Cells were allowed to attach and recover log phase growth over a 3 to 5 day period, feeding daily with MEF conditioned medium supplemented with 8 ng/ml bFGF (R&D Systems; Cat #233-FB). Plates were maintained at 37° C., 5% CO2 in a humidified box throughout the duration of assay.
Stocks of EGF and FGF4 were prepared in a 96-well polypropylene plate (Corning, Inc.; Cat #3960). Compound 22 was available as a 5 mM stock solubilized in 100% DMSO (Sigma; Cat #D2650) and stored at −80° C. Assays were initiated by aspirating culture medium from each well followed by three washes in PBS to remove residual growth factors and serum. […]
On the second day of assay, wells were again aspirated and fed with 80 μl per well were added back containing RPMI 1640 base medium supplemented with 2.5% fatty acid free BSA, 10 ng/ml bFGF, and 3.125 μM Compound 22 plus 20 μl 5× stock of growth factors to yield a final concentration of 2% fatty acid free BSA, 8 ng/ml bFGF and 2.5 μM Compound 22 in assay. Positive control wells contained the same base medium supplemented with 2% fatty acid free BSA, 8 ng/ml bFGF and 100 ng/ml recombinant human activin A. Negative control samples contained the same base medium supplemented with 2% fatty acid free BSA and 8 ng/ml bFGF but omitted treatment with activin A.
At the conclusion of four-days of culture, assay plates were washed twice with PBS, fixed with 4% paraformaldehyde (Alexis Biochemical; Cat #ALX-350-011) at room temperature for 20 minutes, then washed three times with PBS and permeabilized with 0.5% Triton X-100 (Sigma; Cat #T8760-2) for 20 minutes at room temperature. Cells were washed again three times with PBS and blocked with 4% chicken serum (Invitrogen; Cat #16110082) in PBS for 30 minutes at room temperature. Primary antibody (goat anti-human SOX17; R&D Systems; cat #AF1924) was diluted 1:100 in 4% chicken serum and added to each well for one hour at room temperature. Alexa Fluor 488 conjugated secondary antibody (chicken anti-goat IgG; Molecular Probes; Cat #AZ1467) was diluted 1:200 in PBS and added to each sample well after washing three times with PBS. To counterstain nuclei, 4 μg/ml Hoechst 33342 (Invitrogen; Cat #H3570) was added for ten minutes at room temperature. Plates were washed once with PBS and left in 100 μl/well PBS for imaging.
Imaging was performed using an IN Cell Analyzer 1000 (GE Healthcare) utilizing the 51008bs dichroic for cells stained with Hoechst 33342 and Alexa Fluor 488. Exposure times were optimized from positive control wells and from untreated negative control wells stained with secondary antibody alone. Images from 15 fields per well were acquired to compensate for any cell loss during the bioassay and subsequent staining procedures. Measurements for total cell number and total SOX17 intensity were obtained from each well using IN Cell Developer Toolbox 1.7 (GE Healthcare) software. Segmentation for the nuclei was determined based on gray-scale levels (baseline range 100-300) and nuclear size. Averages and standard deviations were calculated for each replicate data set. Total SOX17 protein expression was reported as total intensity or integrated intensity, defined as total fluorescence of the cell multiplied by the area of the cell. Background was eliminated based on acceptance criteria of gray-scale ranges between 200 to 3500. […]

[1] = No AA (with Wnt3a), FGF none, EGF none
[2] = No AA (with Wnt3a), FGF none, EGF(25 ng/ml)
[3] = No AA (with Wnt3a), FGF none, EGF(50 ng/ml)
[4] = No AA (with Wnt3a), FGF none, EGF(100 ng/ml)
[5] = No AA (with Wnt3a), FGF(25 ng/ml), EGF none
[6] = No AA (with Wnt3a), FGF(25 ng/ml), EGF(25 ng/ml)
[7] = No AA (with Wnt3a), FGF(25 ng/ml), EGF(50 ng/ml)
[8] = No AA (with Wnt3a), FGF(25 ng/ml), EGF(100 ng/ml)
[9] = No AA (with Wnt3a), FGF(50 ng/ml), EGF none
[10] = No AA (with Wnt3a), FGF(50 ng/ml), EGF(25 ng/ml)
[11] = No AA (with Wnt3a), FGF(50 ng/ml), EGF(50 ng/ml)
[12] = No AA (with Wnt3a), FGF(50 ng/ml), EGF(100 ng/ml)
[13] = No AA (with Wnt3a), FGF(100 ng/ml), EGF none
[14] = No AA (with Wnt3a), FGF(100 ng/ml), EGF(25 ng/ml)
[15] = No AA (with Wnt3a), FGF(100 ng/ml), EGF(50 ng/ml)
[16] = No AA (with Wnt3a), FGF(100 ng/ml), EGF(100 ng/ml)
[17] = No AA (without Wnt3a), FGF(50 ng/ml), EGF(50 ng/ml)
[18] = No AA (without Wnt3a), FGF(50 ng/ml), EGF(100 ng/ml)
[19] = No AA (without Wnt3a), FGF(100 ng/ml), EGF(50 ng/ml)
[20] = No AA (without Wnt3a), FGF(100 ng/ml), EGF(100 ng/ml)
[21] = Activin A (with Wnt3a), positive control

Compound: O=C1CCN2CCN(CC2)Cc2cc(Cl)cc(c2)Nc2ncnc(n2)-c2cncc(c2)CCCN1 [Compound 34, 5-Chloro-1,8,10,12,16,22,26,32-octaazapentacyclo[24.2.2.1˜3.7˜0.1˜9,13˜0.1˜14.18˜]tritriaconta-3(33), 4,6,9(32), 10,12,14(31), 15,17-nonaen-23-one]
- Cell Number, % of positive control [1]: 92.38%
- Cell Number, Average Total Cell Number [1]: 11711
- Sox17 Expression, % of positive control [1]: 60.68%
- Sox17 Expression, Average Total Intensity [1]: 1.65E+08
- Cell Number, % of positive control [2]: 126.63%
- Cell Number, Average Total Cell Number [2]: 16052
- Sox17 Expression, % of positive control [2]: 78.82%
- Sox17 Expression, Average Total Intensity [2]: 2.14E+08
- Cell Number, % of positive control [3]: 107.23%
- Cell Number, Average Total Cell Number [3]: 13593
- Sox17 Expression, % of positive control [3]: 71.52%
- Sox17 Expression, Average Total Intensity [3]: 1.94E+08
- Cell Number, % of positive control [4]: 103.90%
- Cell Number, Average Total Cell Number [4]: 13170
- Sox17 Expression, % of positive control [4]: 71.04%
- Sox17 Expression, Average Total Intensity [4]: 1.93E+08
- Cell Number, % of positive control [5]: 145.41%
- Cell Number, Average Total Cell Number [5]: 18433
- Sox17 Expression, % of positive control [5]: 91.72%
- Sox17 Expression, Average Total Intensity [5]: 2.49E+08
- Cell Number, % of positive control [6]: 148.63%
- Cell Number, Average Total Cell Number [6]: 18841
- Sox17 Expression, % of positive control [6]: 95.72%
- Sox17 Expression, Average Total Intensity [6]: 2.60E+08
- Cell Number, % of positive control [7]: 128.05%
- Cell Number, Average Total Cell Number [7]: 16232
- Sox17 Expression, % of positive control [7]: 84.79%
- Sox17 Expression, Average Total Intensity [7]: 2.30E+08
- Cell Number, % of positive control [8]: 73.44%
- Cell Number, Average Total Cell Number [8]: 9309
- Sox17 Expression, % of positive control [8]: 51.00%
- Sox17 Expression, Average Total Intensity [8]: 1.39E+08
- Cell Number, % of positive control [9]: 100.64%
- Cell Number, Average Total Cell Number [9]: 12757
- Sox17 Expression, % of positive control [9]: 61.10%
- Sox17 Expression, Average Total Intensity [9]: 1.66E+08
- Cell Number, % of positive control [10]: 139.79%
- Cell Number, Average Total Cell Number [10]: 17720
- Sox17 Expression, % of positive control [10]: 85.01%
- Sox17 Expression, Average Total Intensity [10]: 2.31E+08
- Cell Number, % of positive control [11]: 128.83%
- Cell Number, Average Total Cell Number [11]: 16331
- Sox17 Expression, % of positive control [11]: 83.11%
- Sox17 Expression, Average Total Intensity [11]: 2.26E+08
- Cell Number, % of positive control [12]: 128.87%
- Cell Number, Average Total Cell Number [12]: 16336
- Sox17 Expression, % of positive control [12]: 85.24%
- Sox17 Expression, Average Total Intensity [12]: 2.32E+08
- Cell Number, % of positive control [13]: 156.61%
- Cell Number, Average Total Cell Number [13]: 19853
- Sox17 Expression, % of positive control [13]: 95.45%
- Sox17 Expression, Average Total Intensity [13]: 2.59E+08
- Cell Number, % of positive control [14]: 156.83%
- Cell Number, Average Total Cell Number [14]: 19880
- Sox17 Expression, % of positive control [14]: 95.47%
- Sox17 Expression, Average Total Intensity [14]: 2.59E+08
- Cell Number, % of positive control [15]: 143.30%
- Cell Number, Average Total Cell Number [15]: 18166
- Sox17 Expression, % of positive control [15]: 86.30%
- Sox17 Expression, Average Total Intensity [15]: 2.35E+08
- Cell Number, % of positive control [16]: 88.68%
- Cell Number, Average Total Cell Number [16]: 11241
- Sox17 Expression, % of positive control [16]: 57.10%
- Sox17 Expression, Average Total Intensity [16]: 1.55E+08
- Cell Number, % of positive control [17]: 105.06%
- Cell Number, Average Total Cell Number [17]: 13317
- Sox17 Expression, % of positive control [17]: 74.08%
- Sox17 Expression, Average Total Intensity [17]: 2.01E+08
- Cell Number, % of positive control [18]: 111.93%
- Cell Number, Average Total Cell Number [18]: 14189
- Sox17 Expression, % of positive control [18]: 73.90%
- Sox17 Expression, Average Total Intensity [18]: 2.01E+08
- Cell Number, % of positive control [19]: 99.52%
- Cell Number, Average Total Cell Number [19]: 12616
- Sox17 Expression, % of positive control [19]: 66.21%
- Sox17 Expression, Average Total Intensity [19]: 1.80E+08
- Cell Number, % of positive control [20]: 65.23%
- Cell Number, Average Total Cell Number [20]: 8269
- Sox17 Expression, % of positive control [20]: 41.73%
- SOX17 expression (compound added to EGF and/or FGF4, single cells, no activin A): significant enhancement of SOX17 expression

Compound: Activin A: recombinant human activin A (PeproTech), TGF-beta family member
- Cell Number, % of positive control [21]: 100.00%
- Cell Number, Average Total Cell Number [21]: 12676
- Sox17 Expression, % of positive control [21]: 100.00%
- Sox17 Expression, Average Total Intensity [21]: 2.72E+08
